pIC50: −log10 of the molar value. Where two headings read alike, the source gives them in different places.
Columns and labels:
[1] = tested on: Na^+ -independent Cl^- /HCO3^- exchanger; test: Activity of the Na^+ -independent Cl^- /HCO3^- exchanger in ventricular cardiomyocytes isolated from rat heart (acetate method, carboxy-SNARF-1 intracellular pH); type: cell-based
Experimental: Example A: MEASUREMENT OF THE ACTIVITY OF THE Na^+ -INDEPENDENT Cl^- /HCO3^- EXCHANGER IN VENTRICULAR CARDIOMYOCYTES ISOLATED FROM RAT HEART
The study is performed on ventricular cardiomyocytes isolated from rat heart by enzymatic dissociation. The intracellular pH of a single cell is measured by the fluorescent label carboxy-SNARF-1 whose fluorescence depends on its state of protonation (Buckler K. J. et al. Pflugers Archiv, 1990, 417: 234-239). The cells are "charged" beforehand with SNARF-1-AM (esterified and permeating form of the label) and the intracellular fluorescence of SNARF is monitored using an inverted microscope equipped with epifluorescence. The measurements are converted into pH using a calibration file.
The activity of the Na^+ -independent Cl^- /HCO3^- exchanger is studied after activation by induction of an alkaline charge of the cells by the acetate method (Roos A et al. Physiol. Rev., 1981, 61: 296-434). […]
The compounds according to the invention are used at concentrations of 10^-11 to 10^-5 M and their IC50 (50% inhibitory concentration) is calculated for each ion transporter. In parallel, the effects of the molecules on the intracellular intrinsic buffer power and the intracellular resting pH are determined.

isolated rat hearts = test: Cardiovascular study: arrhythmias in isolated rat hearts (Langendorff infusion), ischaemia-reinfusion; details: for inhibition at 0.1 µM: Rattus norvegicus, n=6, preliminary
Experimental: Example F: CARDIOVASCULAR STUDY
The compounds are tested at a concentration of 0.1 μM in a solution of DMSO in Krebs buffer (0.01% v/v) on arrhythmias. 6 isolated rat hearts were used for the test compound and 6 for the control. An infusion by the Langendorff method is performed (Rees S. A. and Curtis M.J.J. Card. Pharmacol. 1995, 26: 280-288).

Cc1cc(C)c(NC(=O)C2(C)CCc3c(C)c(O)c(C)c(C)c3O2)cc1C (centres unmarked) [Example 14, N-(2,4,5-trimethylphenyl)-(6-hydroxy-3,4-dihydro-2,5,7,8-tetramethyl-2H[1]-benzopyran-2-yl)carboxamide]
selectivity of inhibition of the Na^+ -independent Cl^- /HCO3^- exchanger ([1]; Na^+ /H^+ exchange and Na^+ /HCO3^- cotransport also studied (ammonium method)): selective inhibitor
pIC50 ([1]; activation by alkaline charge (acetate method), 10^-11 to 10^-5 M, read-out: IC50 (50% inhibitory concentration), Na^+ -independent Cl^- /HCO3^- exchanger): ~10.00
activity on the cardiovascular system (isolated rat hearts; 0.1 μM, isolated rat heart): possesses cardioprotective activity
inhibition at 0.1 µM (isolated rat hearts; in comparison with control hearts, read-out: reduction of the incidence of ventricular fibrillation observed during the ischaemia): 50%
inhibition at 0.1 µM (isolated rat hearts; read-out: reduction of the incidence of ventricular fibrillation observed during reinfusion): 50%
